Laboratory results as given in article PMC12621043, “Un-LOK-ing a New Approach for Conformational Selective Targeting of STK10 (LOK)” (ACS Medicinal Chemistry Letters, 2025).

What was measured:
CDK2A = target: T1, CDK2A (Homo sapiens, UniProt P24941); assay: DSF Tm panel; type: binding; details: 10 μM compound
T1 construct: purchased in-house DSF kinase panel (SGC-style construct names; the trailing letter is the construct ID)

CASKA = target: T2, CASKA (Homo sapiens, UniProt O14936); assay: DSF Tm panel; type: binding; details: 10 μM compound
T2 construct: purchased in-house DSF kinase panel (SGC-style construct names; the trailing letter is the construct ID)
T2 sequence (O14936 12-276): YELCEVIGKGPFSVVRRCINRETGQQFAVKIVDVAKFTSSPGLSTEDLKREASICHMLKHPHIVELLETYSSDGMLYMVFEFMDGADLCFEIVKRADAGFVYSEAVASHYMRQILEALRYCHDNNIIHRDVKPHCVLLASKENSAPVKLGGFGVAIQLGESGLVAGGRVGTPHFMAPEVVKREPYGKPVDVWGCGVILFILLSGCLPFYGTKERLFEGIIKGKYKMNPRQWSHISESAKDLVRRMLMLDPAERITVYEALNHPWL

MAPK10A = target: T3, MAPK10A (Homo sapiens, UniProt P53779); assay: DSF Tm panel; type: binding; details: 10 μM compound
T3 construct: purchased in-house DSF kinase panel (SGC-style construct names; the trailing letter is the construct ID)

CAMK2BA = target: T4, CAMK2BA (Homo sapiens, UniProt Q13554); assay: DSF Tm panel; type: binding; details: 10 μM compound
T4 construct: purchased in-house DSF kinase panel (SGC-style construct names; the trailing letter is the construct ID)

MARK3A = target: T5, MARK3A (Homo sapiens, UniProt P27448); assay: DSF Tm panel; type: binding; details: 10 μM compound
T5 construct: purchased in-house DSF kinase panel (SGC-style construct names; the trailing letter is the construct ID)

CDKL1A = target: T6, CDKL1A (Homo sapiens, UniProt Q00532); assay: DSF Tm panel; type: binding; details: 10 μM compound
T6 construct: purchased in-house DSF kinase panel (SGC-style construct names; the trailing letter is the construct ID)

SLK = SLK (Homo sapiens, UniProt Q9H2G2); assay: NanoBRET target engagement assay; type: cell-based; set-up: has a greater impact on the full-length protein than on the kinase domains; host or cells: HEK293T (ATCC CRL-3216); details: HEK293T cells
PCTK1A = target: T7, PCTK1A (Homo sapiens, UniProt Q00536); assay: DSF Tm panel; type: binding; details: 10 μM compound
T7 construct: purchased in-house DSF kinase panel (SGC-style construct names; the trailing letter is the construct ID)

DAPK3 (DAPK3A) = target: T8, DAPK3 (DAPK3A) (Homo sapiens, UniProt O43293); assay: DSF Tm panel; type: binding; details: 10 μM compound
T8 construct: purchased in-house DSF kinase panel (SGC-style construct names; the trailing letter is the construct ID)

STK17BA = target: T9, STK17BA (Homo sapiens, UniProt O94768); assay: DSF Tm panel; type: binding; details: 10 μM compound
T9 construct: purchased in-house DSF kinase panel (SGC-style construct names; the trailing letter is the construct ID)
T9 sequence (O94768 25-329): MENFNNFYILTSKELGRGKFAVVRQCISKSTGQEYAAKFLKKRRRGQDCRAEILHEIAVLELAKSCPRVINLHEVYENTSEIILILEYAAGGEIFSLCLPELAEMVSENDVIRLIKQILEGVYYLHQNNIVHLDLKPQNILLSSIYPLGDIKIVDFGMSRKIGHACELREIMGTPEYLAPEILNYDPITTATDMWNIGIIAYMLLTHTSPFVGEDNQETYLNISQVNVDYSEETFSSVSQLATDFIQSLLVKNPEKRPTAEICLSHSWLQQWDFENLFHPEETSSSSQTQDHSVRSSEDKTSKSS

STK10 = target: T10, STK10 (Homo sapiens, UniProt O94804); assay: PhosphoSens in vitro activity assay; type: biochemical; details: ATP 160 μM
T10 construct: purchased in-house DSF kinase panel (SGC-style construct names; the trailing letter is the construct ID)

MST4A = target: T11, MST4A (Homo sapiens, UniProt Q9P289); assay: DSF Tm panel; type: binding; details: 10 μM compound
T11 construct: purchased in-house DSF kinase panel (SGC-style construct names; the trailing letter is the construct ID)

DCAMKL1A = target: T12, DCAMKL1A (Homo sapiens, UniProt O15075); assay: DSF Tm panel; type: binding; details: 10 μM compound
T12 construct: purchased in-house DSF kinase panel (SGC-style construct names; the trailing letter is the construct ID)
T12 sequence (O15075 372-649): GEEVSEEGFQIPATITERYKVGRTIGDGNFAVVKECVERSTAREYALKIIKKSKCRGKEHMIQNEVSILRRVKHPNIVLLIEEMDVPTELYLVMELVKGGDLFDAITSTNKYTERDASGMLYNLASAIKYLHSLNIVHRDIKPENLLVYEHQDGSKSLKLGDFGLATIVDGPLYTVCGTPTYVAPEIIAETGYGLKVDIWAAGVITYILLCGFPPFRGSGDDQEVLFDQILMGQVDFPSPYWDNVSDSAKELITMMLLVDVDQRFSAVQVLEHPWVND

STK39A = target: T13, STK39A (Homo sapiens, UniProt Q9UEW8); assay: DSF Tm panel; type: binding; details: 10 μM compound
T13 construct: purchased in-house DSF kinase panel (SGC-style construct names; the trailing letter is the construct ID)

MARK4A = target: T14, MARK4A (Homo sapiens, UniProt Q96L34); assay: DSF Tm panel; type: binding; details: 10 μM compound
T14 construct: purchased in-house DSF kinase panel (SGC-style construct names; the trailing letter is the construct ID)

STK4 (STK4A) = target: T15, STK4 (STK4A) (Homo sapiens, UniProt Q13043); assay: DSF Tm panel; type: binding; details: 10 μM compound
T15 construct: purchased in-house DSF kinase panel (SGC-style construct names; the trailing letter is the construct ID)
T15 sequence (Q13043 1-311): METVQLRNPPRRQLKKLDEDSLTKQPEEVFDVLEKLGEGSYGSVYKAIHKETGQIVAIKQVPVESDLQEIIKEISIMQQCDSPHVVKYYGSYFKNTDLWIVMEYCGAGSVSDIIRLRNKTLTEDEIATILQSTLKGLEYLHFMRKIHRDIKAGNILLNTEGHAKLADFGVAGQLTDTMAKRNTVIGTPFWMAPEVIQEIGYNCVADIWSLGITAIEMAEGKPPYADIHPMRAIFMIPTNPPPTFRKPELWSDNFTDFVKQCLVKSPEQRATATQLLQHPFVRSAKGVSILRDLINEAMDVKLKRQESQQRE

VRK1A = target: T16, VRK1A (Homo sapiens, UniProt Q99986); assay: DSF Tm panel; type: binding; details: 10 μM compound
T16 construct: purchased in-house DSF kinase panel (SGC-style construct names; the trailing letter is the construct ID)
T16 sequence (Q99986 1-396): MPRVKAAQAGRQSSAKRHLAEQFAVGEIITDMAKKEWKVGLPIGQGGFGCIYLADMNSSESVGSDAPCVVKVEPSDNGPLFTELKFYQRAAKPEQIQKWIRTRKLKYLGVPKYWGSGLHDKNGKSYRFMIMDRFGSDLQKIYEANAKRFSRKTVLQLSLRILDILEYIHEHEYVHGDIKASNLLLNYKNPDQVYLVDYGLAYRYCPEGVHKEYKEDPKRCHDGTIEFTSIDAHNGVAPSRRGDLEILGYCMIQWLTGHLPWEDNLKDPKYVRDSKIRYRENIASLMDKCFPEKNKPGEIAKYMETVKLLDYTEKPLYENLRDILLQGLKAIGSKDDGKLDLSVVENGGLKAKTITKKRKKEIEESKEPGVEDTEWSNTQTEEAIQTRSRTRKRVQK

ABL1 (ABL1A) = target: T17, ABL1 (ABL1A) (Homo sapiens, UniProt P00519); assay: DSF Tm panel; type: binding; details: 10 μM compound
T17 construct: purchased in-house DSF kinase panel (SGC-style construct names; the trailing letter is the construct ID)
T17 sequence (P00519 229-512): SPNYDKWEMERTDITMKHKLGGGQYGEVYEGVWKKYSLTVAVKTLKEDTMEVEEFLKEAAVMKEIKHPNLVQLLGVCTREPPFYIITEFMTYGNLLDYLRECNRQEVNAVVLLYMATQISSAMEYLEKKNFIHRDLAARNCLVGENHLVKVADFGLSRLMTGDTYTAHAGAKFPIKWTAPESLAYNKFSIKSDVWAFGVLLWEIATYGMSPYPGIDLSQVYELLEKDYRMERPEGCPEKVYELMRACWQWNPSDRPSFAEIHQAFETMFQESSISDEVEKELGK

T8 sequence (O43293 whole entry): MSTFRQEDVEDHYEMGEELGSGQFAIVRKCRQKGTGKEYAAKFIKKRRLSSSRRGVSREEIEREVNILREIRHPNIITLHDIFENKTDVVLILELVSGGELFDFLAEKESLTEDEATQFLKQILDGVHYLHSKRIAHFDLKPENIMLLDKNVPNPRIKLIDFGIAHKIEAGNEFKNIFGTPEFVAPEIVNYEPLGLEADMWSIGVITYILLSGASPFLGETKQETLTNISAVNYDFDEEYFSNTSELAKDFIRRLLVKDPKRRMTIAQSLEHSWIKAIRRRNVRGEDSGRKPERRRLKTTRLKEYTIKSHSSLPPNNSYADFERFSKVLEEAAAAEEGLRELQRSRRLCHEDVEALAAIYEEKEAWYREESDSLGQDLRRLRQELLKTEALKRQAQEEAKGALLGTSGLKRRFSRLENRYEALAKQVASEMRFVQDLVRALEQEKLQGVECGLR
T14 sequence (Q96L34 59-310): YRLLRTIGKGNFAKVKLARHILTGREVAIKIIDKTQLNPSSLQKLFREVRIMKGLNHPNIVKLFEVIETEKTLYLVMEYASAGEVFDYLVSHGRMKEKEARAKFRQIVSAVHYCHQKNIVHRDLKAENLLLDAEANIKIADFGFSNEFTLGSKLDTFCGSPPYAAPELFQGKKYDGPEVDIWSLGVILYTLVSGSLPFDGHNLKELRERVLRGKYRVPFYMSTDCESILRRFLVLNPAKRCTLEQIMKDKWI
T7 sequence (Q00536 163-478): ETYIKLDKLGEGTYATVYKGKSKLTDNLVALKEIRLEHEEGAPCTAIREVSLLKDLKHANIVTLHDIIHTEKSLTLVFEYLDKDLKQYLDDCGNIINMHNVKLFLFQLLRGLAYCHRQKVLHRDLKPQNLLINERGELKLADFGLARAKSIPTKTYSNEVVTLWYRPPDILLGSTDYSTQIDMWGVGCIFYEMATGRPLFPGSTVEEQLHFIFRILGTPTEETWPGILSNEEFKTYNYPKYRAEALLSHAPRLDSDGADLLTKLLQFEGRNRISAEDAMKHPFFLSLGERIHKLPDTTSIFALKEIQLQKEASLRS
T6 sequence (Q00532 1-303): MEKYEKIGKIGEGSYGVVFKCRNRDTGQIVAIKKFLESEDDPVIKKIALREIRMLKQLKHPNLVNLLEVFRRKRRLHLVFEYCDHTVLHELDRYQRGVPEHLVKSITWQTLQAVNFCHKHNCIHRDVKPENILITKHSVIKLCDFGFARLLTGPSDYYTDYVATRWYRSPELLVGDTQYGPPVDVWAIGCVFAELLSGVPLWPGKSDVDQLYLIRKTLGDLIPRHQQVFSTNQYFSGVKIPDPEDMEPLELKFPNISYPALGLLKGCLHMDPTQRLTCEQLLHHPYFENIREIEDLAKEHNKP
T4 sequence (Q13554 11-303): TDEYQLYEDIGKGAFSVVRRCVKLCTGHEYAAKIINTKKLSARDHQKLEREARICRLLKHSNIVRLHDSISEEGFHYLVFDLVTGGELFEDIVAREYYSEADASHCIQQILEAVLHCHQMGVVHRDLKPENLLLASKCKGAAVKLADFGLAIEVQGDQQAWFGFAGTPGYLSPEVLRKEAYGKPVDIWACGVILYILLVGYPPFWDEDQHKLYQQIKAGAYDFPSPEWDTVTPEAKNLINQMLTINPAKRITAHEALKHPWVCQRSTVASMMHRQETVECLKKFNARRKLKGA
T5 sequence (P27448 56-307): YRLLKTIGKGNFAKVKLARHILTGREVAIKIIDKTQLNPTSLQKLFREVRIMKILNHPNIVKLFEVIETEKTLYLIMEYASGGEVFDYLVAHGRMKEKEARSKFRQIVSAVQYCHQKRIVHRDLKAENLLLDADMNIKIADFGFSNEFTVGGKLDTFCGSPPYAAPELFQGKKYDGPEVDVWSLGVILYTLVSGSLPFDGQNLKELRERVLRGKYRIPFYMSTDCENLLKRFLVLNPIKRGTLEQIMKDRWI
T10 sequence (O94804 18-317 limits assumed): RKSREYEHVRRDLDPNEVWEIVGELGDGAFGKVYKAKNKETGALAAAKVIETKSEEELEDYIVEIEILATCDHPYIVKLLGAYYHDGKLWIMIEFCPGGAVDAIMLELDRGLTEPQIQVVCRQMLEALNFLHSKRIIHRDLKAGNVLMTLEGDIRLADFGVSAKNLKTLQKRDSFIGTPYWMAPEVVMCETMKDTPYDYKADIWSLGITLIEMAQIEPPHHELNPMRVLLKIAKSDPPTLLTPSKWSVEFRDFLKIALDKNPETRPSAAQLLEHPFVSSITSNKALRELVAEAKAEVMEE
T3 sequence (P53779 39-402): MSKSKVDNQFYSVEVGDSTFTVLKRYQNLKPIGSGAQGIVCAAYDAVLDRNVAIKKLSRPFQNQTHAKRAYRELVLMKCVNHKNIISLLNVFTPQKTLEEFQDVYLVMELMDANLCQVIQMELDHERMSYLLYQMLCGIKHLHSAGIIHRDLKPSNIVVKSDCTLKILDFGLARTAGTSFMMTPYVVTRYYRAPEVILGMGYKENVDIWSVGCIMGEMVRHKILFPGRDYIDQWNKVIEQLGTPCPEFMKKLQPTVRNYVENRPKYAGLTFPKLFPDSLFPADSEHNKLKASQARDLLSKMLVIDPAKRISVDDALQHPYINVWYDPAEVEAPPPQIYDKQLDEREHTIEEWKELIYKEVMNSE
Sequence of SLK (Q9H2G2 whole entry, the tested form may be a part): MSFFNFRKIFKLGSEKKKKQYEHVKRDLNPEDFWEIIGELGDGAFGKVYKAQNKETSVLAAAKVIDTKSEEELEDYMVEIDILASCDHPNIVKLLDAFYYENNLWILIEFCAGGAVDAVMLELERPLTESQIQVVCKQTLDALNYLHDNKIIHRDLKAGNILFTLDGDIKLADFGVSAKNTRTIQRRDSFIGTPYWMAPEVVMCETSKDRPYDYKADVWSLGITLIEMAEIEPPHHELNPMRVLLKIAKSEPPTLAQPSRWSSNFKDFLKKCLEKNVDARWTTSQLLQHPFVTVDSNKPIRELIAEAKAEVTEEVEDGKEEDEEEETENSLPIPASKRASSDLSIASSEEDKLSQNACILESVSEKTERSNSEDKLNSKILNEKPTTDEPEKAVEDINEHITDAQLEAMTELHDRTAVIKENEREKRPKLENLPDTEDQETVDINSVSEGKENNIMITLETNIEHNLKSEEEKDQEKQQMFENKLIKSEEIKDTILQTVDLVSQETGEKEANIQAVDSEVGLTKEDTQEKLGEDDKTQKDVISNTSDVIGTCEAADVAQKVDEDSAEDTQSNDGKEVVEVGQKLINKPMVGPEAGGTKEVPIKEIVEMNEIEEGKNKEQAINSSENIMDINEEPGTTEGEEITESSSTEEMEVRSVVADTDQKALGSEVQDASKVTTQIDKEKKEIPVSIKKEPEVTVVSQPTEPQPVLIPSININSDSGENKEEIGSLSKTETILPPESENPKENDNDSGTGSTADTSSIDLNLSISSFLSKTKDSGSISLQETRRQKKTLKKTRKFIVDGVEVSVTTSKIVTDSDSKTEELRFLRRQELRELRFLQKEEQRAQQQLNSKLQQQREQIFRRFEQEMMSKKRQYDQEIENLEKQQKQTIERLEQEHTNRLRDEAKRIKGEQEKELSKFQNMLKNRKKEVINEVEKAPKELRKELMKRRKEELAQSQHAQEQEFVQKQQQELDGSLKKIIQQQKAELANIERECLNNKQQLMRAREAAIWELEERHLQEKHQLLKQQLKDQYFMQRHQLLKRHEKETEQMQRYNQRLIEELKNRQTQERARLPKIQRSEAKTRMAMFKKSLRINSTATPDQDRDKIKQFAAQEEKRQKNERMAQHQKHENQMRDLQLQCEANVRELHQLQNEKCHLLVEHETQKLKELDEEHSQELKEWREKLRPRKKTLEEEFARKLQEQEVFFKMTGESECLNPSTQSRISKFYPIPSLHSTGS
T11 sequence (Q9P289 1-300): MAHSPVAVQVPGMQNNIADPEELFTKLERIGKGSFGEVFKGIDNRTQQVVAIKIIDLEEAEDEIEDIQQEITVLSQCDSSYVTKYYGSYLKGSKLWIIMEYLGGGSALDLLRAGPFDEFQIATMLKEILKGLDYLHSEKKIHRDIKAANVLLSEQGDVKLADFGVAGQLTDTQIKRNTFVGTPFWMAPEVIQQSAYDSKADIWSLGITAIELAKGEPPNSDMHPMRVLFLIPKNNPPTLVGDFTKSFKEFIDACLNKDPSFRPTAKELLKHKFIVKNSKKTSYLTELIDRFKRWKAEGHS

Row | SMILES | ΔTm at 10 µM (CDK2A) | ΔTm at 10 µM (CASKA) | ΔTm at 10 µM (MAPK10A) | ΔTm at 10 µM (CAMK2BA) | ΔTm at 10 µM (MARK3A) | ΔTm at 10 µM (CDKL1A) | EC50 (SLK) | ΔTm at 10 µM (PCTK1A) | ΔTm at 10 µM (DAPK3 (DAPK3A)) | ΔTm at 10 µM (STK17BA) | IC50 (STK10) | ΔTm at 10 µM (MST4A) | ΔTm at 10 µM (DCAMKL1A) | ΔTm at 10 µM (STK39A) | ΔTm at 10 µM (MARK4A) | ΔTm at 10 µM (STK4 (STK4A)) | ΔTm at 10 µM (VRK1A) | ΔTm at 10 µM (ABL1 (ABL1A))
1 | O=C(NCc1cccc(Cl)c1)Nc1ccc2cc1OCCOCCNc1ccn3ncc-2c3n1 [compound 18] | 4.3 °C | 2.1 °C | 0.6 °C | 0.8 °C | 0.7 °C | -0.1 °C | > 50 µM | 1.3 °C | 1.3 °C | 2.4 °C | 2.57 ± 0.11 µM | 0.8 °C | -0.1 °C | 4 °C | 1.4 °C | 4.5 °C | 0.3 °C | 1.8 °C
2 | O=C(NCc1ccccc1Cl)Nc1ccc2cc1OCCOCCNc1ccn3ncc-2c3n1 [compound 17] | 2.9 °C | 2.8 °C | 0.2 °C | 0.3 °C | 0.8 °C | 0.4 °C | > 50 µM | 2.5 °C | 0.7 °C | 4.1 °C | 1.53 ± 0.26 µM | 0.7 °C | 0.7 °C | 2.4 °C | 2.2 °C | 4.1 °C | 0.1 °C | 1.7 °C
3 | O=C(NCc1ccc(C(F)(F)F)cc1)Nc1ccc2cc1OCCOCCNc1ccn3ncc-2c3n1 [compound 28] | 3.3 °C | 0.5 °C | 1.1 °C | 0.3 °C | 1.4 °C | 0.6 °C | > 50 µM | 1 °C | 1.2 °C | 4.8 °C | 5 ± 0.61 µM | 2.1 °C | 2.7 °C | 1.3 °C | 2.7 °C | 4.3 °C | 0.6 °C | 0.9 °C
4 | COc1ccccc1CNC(=O)Nc1ccc2cc1OCCOCCNc1ccn3ncc-2c3n1 [compound 29] | 1.7 °C | 1.1 °C | 0.3 °C | -0.2 °C | -0.1 °C | 0.2 °C | > 50 µM | 1 °C | 0.5 °C | 1.7 °C | 5.2 ± 0.81 µM | 0.2 °C | 0.9 °C | 0.8 °C | 1.9 °C | 2.6 °C | 0 °C | 0.7 °C
5 | O=C(NCc1ccc(Cl)cc1Cl)Nc1ccc2cc1OCCOCCNc1ccn3ncc-2c3n1 [compound 20] | 2.5 °C | 1.7 °C | 1.6 °C | 1.6 °C | 1.7 °C | 0.9 °C | > 50 µM | 1.1 °C | 0.5 °C | 2.8 °C | 1.43 ± 0.28 µM | 0.5 °C | 0.6 °C | 1.9 °C | 2 °C | 3.6 °C | 0.4 °C | 2.2 °C
6 | COc1ccc(CNC(=O)Nc2ccc3cc2OCCOCCNc2ccn4ncc-3c4n2)cc1 [compound 31] | 3.3 °C | 1.8 °C | 0.7 °C | -0.1 °C | 0.2 °C | 0.6 °C |  | 1.9 °C | 1.2 °C | 2.6 °C | 2.74 ± 0.47 µM | 0.9 °C | 1.4 °C | 1.2 °C | 2 °C | 4.1 °C | 0.2 °C | 1.7 °C

Now from value to compound:

Row | ΔTm at 10 µM (CDK2A) | ΔTm at 10 µM (CASKA) | ΔTm at 10 µM (MAPK10A) | ΔTm at 10 µM (CAMK2BA) | ΔTm at 10 µM (MARK3A) | ΔTm at 10 µM (CDKL1A) | EC50 (SLK) | ΔTm at 10 µM (PCTK1A) | ΔTm at 10 µM (DAPK3 (DAPK3A)) | ΔTm at 10 µM (STK17BA) | IC50 (STK10) | ΔTm at 10 µM (MST4A) | ΔTm at 10 µM (DCAMKL1A) | ΔTm at 10 µM (STK39A) | ΔTm at 10 µM (MARK4A) | ΔTm at 10 µM (STK4 (STK4A)) | ΔTm at 10 µM (VRK1A) | ΔTm at 10 µM (ABL1 (ABL1A)) | SMILES
7 | 1.6 °C | 0.6 °C | 0.5 °C | -0.2 °C | 0.8 °C | 0.5 °C | > 50 µM | 0.7 °C | 0.4 °C | 3.6 °C | 4.62 ± 0.88 µM | 1.2 °C | 1.6 °C | 1 °C | 1.9 °C | 2.8 °C | 1 °C | -0.4 °C | Cc1cc(Br)ccc1CNC(=O)Nc1ccc2cc1OCCOCCNc1ccn3ncc-2c3n1 [compound 24]
8 | 2.3 °C | 1.2 °C | 0.5 °C | 0 °C | 0.2 °C | 0.5 °C | > 50 µM | 1 °C | 1.2 °C | 3.1 °C | 3.53 ± 0.57 µM | 0.8 °C | 1.6 °C | 0.9 °C | 1.9 °C | 3.1 °C | 0.5 °C | 0.6 °C | Cc1ccc(F)cc1CNC(=O)Nc1ccc2cc1OCCOCCNc1ccn3ncc-2c3n1 [compound 26]
9 | 1.4 °C | 0 °C | -0.7 °C | 0.6 °C | 0.5 °C | -0.2 °C | > 50 µM | 1 °C | 2.8 °C | 3.4 °C |  | -0.4 °C | 0.6 °C | 1.6 °C | 0.8 °C | 0.9 °C | -0.1 °C | 1.4 °C | CN1CCN(C(=O)Nc2ccc3cc2OCCOCCNc2ccn4ncc-3c4n2)CC1 [compound 35]
